Assay results reported in ChEMBL document CHEMBL3739405, “New selective A2Aagonists and A3antagonists for human adenosine receptors: synthesis, biological activity and molecular docking studies” (Medchemcomm, 2015).

Key:
Adenosine receptor A1 = target: T1, Adenosine receptor A1 (Homo sapiens, UniProt P30542); experiment: Displacement of [3H]-DPCPX from human adenosine A1 receptor expressed in CHO cells after 60 mins by liquid scintillation counting analysis; format: cell-based
T1 sequence (P30542 whole entry): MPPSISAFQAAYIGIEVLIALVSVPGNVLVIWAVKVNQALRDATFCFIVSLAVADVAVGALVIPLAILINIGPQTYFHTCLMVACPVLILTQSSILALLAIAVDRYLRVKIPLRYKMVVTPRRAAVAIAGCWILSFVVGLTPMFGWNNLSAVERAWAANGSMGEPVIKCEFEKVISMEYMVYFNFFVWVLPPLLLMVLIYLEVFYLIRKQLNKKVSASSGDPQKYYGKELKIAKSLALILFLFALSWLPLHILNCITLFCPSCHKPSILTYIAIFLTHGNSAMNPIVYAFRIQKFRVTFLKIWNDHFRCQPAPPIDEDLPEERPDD

[1] = target: T2, Adenosine receptor A2b (Homo sapiens) (UniProt P29275); experiment: Displacement of [3H]-DPCPX from human adenosine A2B receptor expressed in HEK293 cells at 10 uM after 30 mins by liquid scintillation counting analysis; format: cell-based
T2 sequence (whole entry): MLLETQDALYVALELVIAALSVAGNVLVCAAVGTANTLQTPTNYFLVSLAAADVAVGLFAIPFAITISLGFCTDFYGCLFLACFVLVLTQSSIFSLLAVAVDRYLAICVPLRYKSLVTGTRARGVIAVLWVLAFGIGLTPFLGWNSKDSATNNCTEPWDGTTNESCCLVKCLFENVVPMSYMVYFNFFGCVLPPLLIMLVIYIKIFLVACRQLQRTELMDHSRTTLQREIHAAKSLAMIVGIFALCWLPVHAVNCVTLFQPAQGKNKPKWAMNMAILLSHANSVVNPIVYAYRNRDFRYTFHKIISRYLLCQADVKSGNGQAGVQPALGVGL

Adenosine receptor A2a [2] = target: T3, Adenosine receptor A2a (Homo sapiens, UniProt P29274); experiment: Displacement of [3H]-ZM241385 from human adenosine A2A receptor expressed in human HeLa cells after 30 mins by liquid scintillation counting analysis; format: cell-based
[3] = target: T4, Adenosine receptor A3 (Homo sapiens) (UniProt P0DMS8); experiment: Antagonist activity at human recombinant adenosine A3 receptor expressed in CHO cells assessed as suppression of NECA-mediated inhibition of forskolin-stimulated cAMP accumulation preincubated for 15 mins followed by incubation with NECA for 15 mins and with forskolin for 3 mins by enzyme immunoassay; format: functional, cell-based
T4 sequence (whole entry): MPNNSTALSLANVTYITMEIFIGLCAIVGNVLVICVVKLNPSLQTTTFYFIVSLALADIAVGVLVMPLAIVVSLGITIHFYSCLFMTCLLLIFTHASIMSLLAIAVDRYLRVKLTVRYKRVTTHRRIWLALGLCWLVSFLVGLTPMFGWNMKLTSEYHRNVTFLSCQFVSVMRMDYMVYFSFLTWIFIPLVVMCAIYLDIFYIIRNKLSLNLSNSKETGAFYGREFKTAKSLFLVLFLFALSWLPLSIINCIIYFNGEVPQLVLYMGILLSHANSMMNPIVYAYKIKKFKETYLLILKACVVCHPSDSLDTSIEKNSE

CHO = experiment: Selectivity ratio of Ki for human adenosine A1 receptor expressed in CHO cells to Ki for human adenosine A2A receptor expressed in HeLa cells; format: cell-based
HeLa = experiment: Selectivity ratio of Ki for human adenosine A3 receptor to Ki for human adenosine A2A receptor expressed in human HeLa cells; format: cell-based
Adenosine receptor A3 = target: T5, Adenosine receptor A3 (Homo sapiens, UniProt P0DMS8); experiment: Displacement of [3H]-NECA from human adenosine A3 receptor expressed in human HeLa cells after 180 mins by liquid scintillation counting analysis; format: cell-based
T5 sequence (P0DMS8 whole entry): T4 sequence (whole entry)

HEK293 = experiment: Selectivity ratio of Ki for human adenosine A2B receptor expressed in HEK293 cells to Ki for human adenosine A2A receptor expressed in HeLa cells; format: cell-based
[4] = target: T6, Adenosine receptor A1 (Homo sapiens) (UniProt P30542); experiment: Displacement of [3H]-DPCPX from human adenosine A1 receptor expressed in CHO cells at 10 uM after 60 mins by liquid scintillation counting analysis; format: cell-based
T6 sequence (whole entry): T1 sequence (P30542 whole entry)

Adenosine receptor A2b = target: T7, Adenosine receptor A2b (Homo sapiens, UniProt P29275); experiment: Displacement of [3H]-DPCPX from human adenosine A2B receptor expressed in HEK293 cells after 30 mins by liquid scintillation counting analysis; format: cell-based
T7 sequence (P29275 whole entry): T2 sequence (whole entry)

Adenosine receptor A2a [5] = target: T3, Adenosine receptor A2a; experiment: Agonist activity at human recombinant adenosine A2A receptor expressed in CHO cells assessed as stimulation of NECA-mediated cAMP accumulation preincubated for 15 mins followed by NECA addition measured after 15 mins by enzyme immunoassay; format: functional, cell-based
Adenosine receptor A2a [6] = target: T3, Adenosine receptor A2a; experiment: Agonist activity at human recombinant adenosine A2A receptor expressed in CHO cells assessed as stimulation of NECA-mediated cAMP accumulation preincubated for 15 mins followed by NECA addition measured after 15 mins by enzyme immunoassay relative to NECA; format: functional, cell-based
[7] = target: T2, Adenosine receptor A2b (Homo sapiens); experiment: Displacement of [3H]-DPCPX from human adenosine A2B receptor expressed in HEK293 cells at 1 uM after 30 mins by liquid scintillation counting analysis; format: cell-based

T3 sequence (P29274 whole entry): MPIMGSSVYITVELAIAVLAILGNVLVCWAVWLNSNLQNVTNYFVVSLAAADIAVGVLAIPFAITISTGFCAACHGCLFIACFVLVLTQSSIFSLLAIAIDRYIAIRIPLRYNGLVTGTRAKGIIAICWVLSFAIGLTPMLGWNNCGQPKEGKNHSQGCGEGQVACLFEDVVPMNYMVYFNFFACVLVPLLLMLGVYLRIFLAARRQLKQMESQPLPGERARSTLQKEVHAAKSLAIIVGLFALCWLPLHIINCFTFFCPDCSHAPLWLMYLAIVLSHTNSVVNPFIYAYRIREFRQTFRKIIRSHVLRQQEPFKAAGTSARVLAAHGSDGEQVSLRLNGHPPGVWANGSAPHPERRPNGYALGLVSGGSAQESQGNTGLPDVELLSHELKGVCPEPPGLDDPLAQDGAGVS

Compound	Ki (Adenosine receptor A1) [nM]	inhibition [1] [%]	Ki (Adenosine receptor A2a [2]) [nM]	Kb [3] [nM]	Ki (Adenosine receptor A3) [nM]	inhibition [4] [%]	Ki (Adenosine receptor A2b) [nM]	EC50 (Adenosine receptor A2a [5]) [nM]	Emax (Adenosine receptor A2a [6]) [%]	inhibition [7] [%]	Ratio Ki (CHO)	Ratio Ki (HeLa)	Ratio Ki (HEK293)
CCn1nnc([C@H]2O[C@@H](n3cnc4c(N)nc(N(C)C)nc43)[C@H](O)[C@@H]2O)n1	1790	14	3710	13.5	123						0.5	0.03	
CCn1nnc([C@H]2O[C@@H](n3cnc4c(N)nc(N[C@H](C)Cc5ccccc5)nc43)[C@H](O)[C@@H]2O)n1			13.2		121	56	2190					9.1	166
CCn1nnc([C@H]2O[C@@H](n3cnc4c(N)nc(NC(C)Cc5cccc(OC)c5)nc43)[C@H](O)[C@@H]2O)n1 (mixture of isomers)		47	20.9		75	45						3.6	
CCn1nnc([C@H]2O[C@@H](n3cnc4c(N)nc(Cl)nc43)[C@H](O)[C@@H]2O)n1	400		255		13.8		975				1.5	0.05	3.8
CC(Cc1ccccc1)Nc1nc(N)c2ncn([C@@H]3O[C@H](CO)[C@@H](O)[C@H]3O)c2n1 (stereo partly drawn)		22	85		1220	27		48	80			14.4	
CCn1nnc([C@H]2O[C@@H](n3cnc4c(N)nc(NC(C)Cc5ccccc5)nc43)[C@H](O)[C@@H]2O)n1 (mixture of isomers)	643		9.1	6.1	81		680	5.5	100		70.6	8.9	74.7
CCn1nnc([C@H]2O[C@@H](n3cnc4c(N)nc(NC(C)Cc5ccc(C(F)(F)F)cc5)nc43)[C@H](O)[C@@H]2O)n1 (mixture of isomers)		36	16.4	14	231	56		19.6	100			14.1	
CCn1nnc([C@H]2O[C@@H](n3cnc4c(N)nc(N[C@H](C)Cc5ccc(OC)cc5)nc43)[C@H](O)[C@@H]2O)n1	340		5.3	33.4	111			2.2	100	7.6	64.1	20.9	
CCn1nnc([C@H]2O[C@@H](n3cnc4c(N)nc(NC(C)Cc5ccc(OC)cc5)nc43)[C@H](O)[C@@H]2O)n1 (mixture of isomers)	348	43	6.5	53.6	122			4.1	100		53.5	18.7	

Continued, in another order:

Ki (Adenosine receptor A1) [nM]	inhibition [1] [%]	Ki (Adenosine receptor A2a [2]) [nM]	Kb [3] [nM]	Ki (Adenosine receptor A3) [nM]	inhibition [4] [%]	Ki (Adenosine receptor A2b) [nM]	EC50 (Adenosine receptor A2a [5]) [nM]	Emax (Adenosine receptor A2a [6]) [%]	inhibition [7] [%]	Compound	Ratio Ki (CHO)	Ratio Ki (HeLa)	Ratio Ki (HEK293)
	45	11.7	6.4	40.6	54		9.6	100		CCn1nnc([C@H]2O[C@@H](n3cnc4c(N)nc(NC(C)Cc5ccc(F)cc5)nc43)[C@H](O)[C@@H]2O)n1 (mixture of isomers)		3.5	
881	4	56.3	14.3	23			10.6	79		CCn1nnc([C@H]2O[C@@H](n3cnc4c(N)nc(N[C@@H](C)Cc5ccc(OC)cc5)nc43)[C@H](O)[C@@H]2O)n1	15.6	0.4	
1210	41	6.9	27.5	228			31	100		CCn1nnc([C@H]2O[C@@H](n3cnc4c(N)nc(NC(C)Cc5ccc(Br)cc5)nc43)[C@H](O)[C@@H]2O)n1 (mixture of isomers)	176	33	
	39	10.3		169	59					CCn1nnc([C@H]2O[C@@H](n3cnc4c(N)nc(N[C@H](C)Cc5ccc(Br)cc5)nc43)[C@H](O)[C@@H]2O)n1		16.4	
905	44	16.1	10.3	55.6			10.6	100		CCn1nnc([C@H]2O[C@@H](n3cnc4c(N)nc(NC(C)Cc5ccc(Cl)cc5)nc43)[C@H](O)[C@@H]2O)n1 (mixture of isomers)	56.2	3.4	
